Consider four compounds from ChEMBL document CHEMBL1128255, “Synthesis of 11 beta-[18F]fluoro-5 alpha-dihydrotestosterone and 11 beta-[18F]fluoro-19-nor-5 alpha-dihydrotestosterone: preparation via halofluorination-reduction, receptor binding, and tissue distribution” (J Med Chem, 1995).

One data set can be described thus: physchem. The settings on record: octanol/water.
For data set [1], the target named is T1, Androgen receptor (Rattus norvegicus) (UniProt P15207).
T1 sequence (whole entry): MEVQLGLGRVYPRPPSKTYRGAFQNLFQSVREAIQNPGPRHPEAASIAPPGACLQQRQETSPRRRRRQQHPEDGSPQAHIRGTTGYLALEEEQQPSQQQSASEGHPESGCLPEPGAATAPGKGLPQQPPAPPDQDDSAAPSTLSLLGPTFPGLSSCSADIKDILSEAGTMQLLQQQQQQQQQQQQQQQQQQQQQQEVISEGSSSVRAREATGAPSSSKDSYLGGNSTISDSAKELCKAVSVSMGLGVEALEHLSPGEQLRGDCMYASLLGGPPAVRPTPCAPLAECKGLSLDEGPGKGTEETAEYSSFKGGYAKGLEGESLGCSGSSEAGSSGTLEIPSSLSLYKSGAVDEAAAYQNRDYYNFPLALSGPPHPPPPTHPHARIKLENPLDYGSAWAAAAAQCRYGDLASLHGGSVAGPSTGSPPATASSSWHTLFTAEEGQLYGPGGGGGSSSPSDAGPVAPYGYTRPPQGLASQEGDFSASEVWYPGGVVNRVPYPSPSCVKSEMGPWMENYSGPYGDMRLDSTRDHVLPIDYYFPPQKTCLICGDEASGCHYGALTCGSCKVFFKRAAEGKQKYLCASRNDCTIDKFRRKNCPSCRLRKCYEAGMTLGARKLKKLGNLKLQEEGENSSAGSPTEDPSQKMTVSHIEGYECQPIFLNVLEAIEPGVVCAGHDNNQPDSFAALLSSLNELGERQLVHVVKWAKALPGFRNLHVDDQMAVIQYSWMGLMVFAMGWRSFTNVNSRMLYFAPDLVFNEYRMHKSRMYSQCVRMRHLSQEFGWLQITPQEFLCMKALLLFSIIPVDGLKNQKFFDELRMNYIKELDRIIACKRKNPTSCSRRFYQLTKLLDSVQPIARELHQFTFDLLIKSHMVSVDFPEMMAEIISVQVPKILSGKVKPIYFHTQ
Description: Binding selectivity index (BSI) as ratio of RBA for androgen receptor to non-specific binding of R1881

The structures appear in SMILES notation.

Description for physchem: Partition coefficient (logP)

`C[C@]12CC[C@H]3[C@@H](CCC4=CC(=O)CC[C@@]43C)[C@@H]1CC[C@@H]2O` [TESTOSTERONE] returned a logP in “physchem” of 3.45.

With `C[C@]12CC[C@H]3[C@@H](CCC4=CC(=O)CC[C@@H]43)[C@@H]1CC[C@@H]2O` [NANDROLONE], the logP in “physchem” amounted to 3.17.

Consider `C[C@]1(O)CC[C@H]2[C@@H]3CCC4=CC(=O)CCC4=C3C=C[C@@]21C` [METRIBOLONE], for which, in data set [1], the BSI came out at 100. In the data set “physchem”, this compound displayed a logP of 3.29.

For the compound `C[C@]12CC[C@H]3[C@@H](CC[C@H]4CC(=O)CC[C@@H]43)[C@@H]1CC[C@@H]2O`, the BSI in data set [1] was 13.7. The compound also gave a logP in “physchem” of 3.85.
